Test results as given in patent US20260021084A1, “METHOD OF TREATING ORGAN DISEASES OR DISORDERS WITH ASK1 INHIBITORS” (Seal Rock Therapeutics, Inc., priority 2022, published 2026).

How the values were obtained:
Type in all cases: in vivo
C57Bl/6 male mice = assay: Efficacy of intravenous ASK1 inhibitor in liver injury due to acute alcoholic hepatitis (pyrazole/LPS model), plasma ALT; conditions: IV 0.3 and 3 mg/kg twice (3 hours apart), plasma 24 h after LPS
Description: The goal of the study is to evaluate whether IV administered ASK1 inhibitor can reduce liver injury due to acute alcoholic hepatitis (AH).
Seven-day acclimated C57Bl/6 male mice were treated with pyrazole for 2-days to induce CYP2E, prior to ASK1 inhibitor and lipopolysaccharide (LPS) administration. On day 3, ASK1 inhibitor 2-(6-(4-cyclopropyl-4H-1,2,4-triazol-3-yl)pyridin-2-yl)-5-(morpholine-4-carbonyl)isoindolin-1-one was administered by IV injection via tail vein at 0.3 and 3 mg/kg or vehicle twice (3 hours apart). LPS was administered intraperitoneally 30 min after the first dose of 2-(6-(4-cyclopropyl-4H-1,2,4-triazol-3-yl)pyridin-2-yl)-5-(morpholine-4-carbonyl)isoindolin-1-one. LPS administration emulates the inflammation by gut bacteria penetrating the intestinal wall following binge drinking. 24 h after LPS administration, plasma was collected for ALT analysis to estimate reduction of liver injury following intravenous treatment with ASK1 inhibitor.

[1] = Organ distribution of ASK1 inhibitor in rats after intravenous administration; conditions: male, Sprague-Dawley, rat, single IV 10 mg/kg
Description: The objective of this study was to investigate organ (liver, heart, kidney, pancreas, spleen and skin) distribution of ASK1 inhibitor in male Sprague Dawley rats following a single intravenous (IV) administration at a dose of 10 mg/kg. Three rats are administered intravenously with a solution formulation of ASK1 inhibitor 2-(6-(4-cyclopropyl-4H-1,2,4-triazol-3-yl)pyridin-2-yl)-5-(morpholine-4-carbonyl)isoindolin-1-one in 5% NMP, 15% Solutol HS-15, 20% PEG-400 and 60% HpBetaCD at 10 mg/kg dose. 2-(6-(4-Cyclopropyl-4H-1,2,4-triazol-3-yl)pyridin-2-yl)-5-(morpholine-4-carbonyl)isoindolin-1-one was prepared as described in US2018/0291002 which is herein incorporated by reference in its entirety.
(§1) Blood samples (approximately 120 μL) were collected under light isoflurane anesthesia from retro orbital plexus from a set of three rats at 1 h post IV injection. Immediately after blood collection, plasma was harvested by centrifugation at 4000 rpm, 10 min at […] and samples were stored at −70±10° C. until bioanalysis. Animals were sacrificed immediately followed by abdominal vena-cava cut open and whole body was perfused from heart using 10 mL of normal saline. After isolation, tissue samples were rinsed three times in ice cold normal saline (for 5-10 seconds/rinsed using ˜5-10 mL normal saline in disposable petri dish for each rinse, dried on blotting paper and weighed. Tissue (liver, heart, kidney, pancreas, spleen and skin) samples were homogenized using ice-cold phosphate buffer saline (pH−7.4). Total homogenate volume was five times the tissue weight. All homogenates were stored below −70±10° C. until bioanalysis.
(§2) Plasma, liver, heart, kidney, pancreas, spleen, and skin samples were quantified by fit-for-purpose LC-MS/MS method.

[2] = Organ distribution of ASK1 inhibitor in rats after oral administration; conditions: male, Sprague-Dawley, rat, single oral 300 mg/kg
Description: The objective of this study was to investigate organ (liver, heart, kidney) distribution of ASK1 inhibitor in male Sprague Dawley rats following a single oral (PO) administration at a dose of 300 mg/kg. Three rats are administered orally with suspension formulation of ASK1 inhibitor 2-(6-(4-cyclopropyl-4H-1,2,4-triazol-3-yl)pyridin-2-yl)-5-(morpholine-4-carbonyl)isoindolin-1-one in a formulation of 0.1% Tween 80 and 99.9% HPMC (0.5% w/v in water) at 300 mg/kg dose.
as §1, with “PO administration.” for “IV injection.”, “kidney)” for “kidney, pancreas, spleen and skin)”
as §2

[3] = heart / plasma, read-out: Tissue-to-plasma ratio, Heart
[4] = kidney / plasma, read-out: Tissue-to-plasma ratio, Kidney
[5] = liver / plasma, read-out: Tissue-to-plasma ratio, Liver

Kp at 1 h [1, 3]: 1.11 | Kp at 1 h [1, 4]: 5.99 | Kp at 1 h [1, 5]: 9.37 | Kp at 1 h ([1]; pancreas / plasma, read-out: Tissue-to-plasma ratio, Pancreas): 0.99 | Kp at 1 h ([1]; skin / plasma, read-out: Tissue-to-plasma ratio, Skin): 0.46 | Kp at 1 h ([1]; spleen / plasma, read-out: Tissue-to-plasma ratio, Spleen): 0.89 | Kp at 1 h [2, 3]: 1.13 | Kp at 1 h [2, 4]: 7.47 | Kp at 1 h [2, 5]: 13.8
Structure (SMILES): O=C(c1ccc2c(c1)CN(c1cccc(-c3nncn3C3CC3)n1)C2=O)N1CCOCC1 [2-(6-(4-cyclopropyl-4H-1,2,4-triazol-3-yl)pyridin-2-yl)-5-(morpholine-4-carbonyl)isoindolin-1-one]
lowered plasma ALT levels (C57Bl/6 male mice): 74-85%
